Laboratory results reported in US12472272B2, “Radiolabelled compounds for diagnosis or treatment of prostate-specific membrane antigen- expressing cancer” (PROVINCIAL HEALTH SERVICES AUTHORITY, priority 2019, dated 2025).

Tested on: PSMA-expressing cancer xenografts (LNCaP)
Test: Biodistribution of ^177Lu-labeled HTK03041
Format: in vivo, mice
Conditions: for Tissue (% ID/g): Adrenal glands / Tissue (% ID/g): Blood / Tissue (% ID/g): Bone / Tissue (% ID/g): Brain / Tissue (% ID/g): Fat / Tissue (% ID/g): Heart / Tissue (% ID/g): Intestine / Tissue (% ID/g): Kidneys / Tissue (% ID/g): Lacrimal / Tissue (% ID/g): Liver / Tissue (% ID/g): Lungs / Tissue (% ID/g): Muscle / Tissue (% ID/g): Pancreas / Tissue (% ID/g): Salivary / Tissue (% ID/g): Seminal / Tissue (% ID/g): Spleen / Tissue (% ID/g): Stomach / Tissue (% ID/g): Tail / Tissue (% ID/g): Testes / Tissue (% ID/g): Thyroid / Tissue (% ID/g): Tumor / Tissue (% ID/g): Urine / tumor-to-background contrast ratio Tumor: Blood / tumor-to-background contrast ratio Tumor: Muscle / tumor-to-background contrast ratio Tumor: kidney: ^177Lu
Protocol: Imaging and biodistribution experiments were performed using NODSCID 1L2RγKO male mice. Mice were anesthetized by inhalation with 2% isoflurane in oxygen, and implanted subcutaneously with 1×10^7 LNCaP cells behind left shoulder. Mice were imaged or used in biodistribution studies when the tumor grew up to reach 5-8 mm in diameter during 5-6 weeks.
SPECT/CT imaging experiments were conducted using the MlLabs (Utrecht, the Netherlands) U-SPECT-II/CT scanner. Each tumor bearing mouse was injected with ˜37 MBq of ^177Lu-labeled HTK03041 through the tail vein under anesthesia (2% isoflurane in oxygen). The mice were allowed to recover and roam freely in their cage and imaged at 1, 4, 24, 72 and 120 hours after injection. At each time point, the mice were sedated again and positioned in the scanner. A 5-min CT scan was conducted first for anatomical reference with a voltage setting at 60 kV and current at 615 μA followed by a 60-min static emission scan acquired in list mode using an ultra-high resolution multi-pinhole rat-mouse (1 mm pinhole size) collimator. Data were reconstructed using the U-SPECT II software with a 20% window width on three energy windows. The photopeak window was centered at 208 keV, with lower scatter and upper scatter windows centered at 170 and 255 keV, respectively. Reconstruction parameters used maximum-likelihood expectation maximization (3 iterations), pixel-based ordered subset expectation maximization (16 subsets), and a post-processing filter (Gaussian blurring) of 0.5 mm. Images were decay corrected to injection time in PMOD (PMOD Technologies, Switzerland) then converted to DICOM for qualitative visualization in Inveon Research Workplace (Siemens Medical Solutions USA, Inc.).
For biodistribution studies, the mice were injected with the radiotracer as described above. At predetermined time points (1 or 3 h for ^68Ga studies; 1, 4, 24, 72, or 120 h for ^177Lu studies), the mice was anesthetized with 2% isoflurane inhalation, and euthanized by CO2 inhalation. Blood was withdrawn immediately from the heart, and the organs/tissues of interest were collected. The collected organs/tissues were weighed and counted using a Perkin Elmer (Waltham, MA) Wizard2 2480 gamma counter. The uptake in each organ/tissue was normalized to the injected dose using a standard curve, and expressed as the percentage of the injected dose per gram of tissue (% ID/g).

Structure (SMILES): O=C([O-])CN1CCN(CC(=O)[O-])CCN(CC(=O)NC[C@H]2CC[C@H](C(=O)N[C@@H](Cc3c4ccccc4cc4ccccc34)C(=O)NCCCC[C@H](NC(=O)N[C@@H](CCC(=O)O)C(=O)O)C(=O)O)CC2)CCN(CC(=O)[O-])CC1.[177Lu+3] [^177Lu-HTK03041]
- peaked tumor uptake (LNCaP tumor-bearing mice): ~20 % ID/g
- Tissue (% ID/g): Adrenal glands (1 h post-injection): 5.53 ± 1.90 % ID/g
- Tissue (% ID/g): Blood (1 h post-injection): 0.84 ± 0.15 % ID/g
- Tissue (% ID/g): Bone (1 h post-injection): 0.29 ± 0.07 % ID/g
- Tissue (% ID/g): Brain (1 h post-injection): 0.04 ± 0.01 % ID/g
- Tissue (% ID/g): Fat (1 h post-injection): 1.09 ± 0.20 % ID/g
- Tissue (% ID/g): Heart (1 h post-injection): 2.44 ± 0.43 % ID/g
- Tissue (% ID/g): Intestine (1 h post-injection): 1.25 ± 0.15 % ID/g
- Tissue (% ID/g): Kidneys (1 h post-injection): 98.6 ± 9.27 % ID/g
- Tissue (% ID/g): Lacrimal (1 h post-injection): 0.03 ± 0.04 % ID/g
- Tissue (% ID/g): Liver (1 h post-injection): 1.91 ± 0.38 % ID/g
- Tissue (% ID/g): Lungs (1 h post-injection): 4.41 ± 0.49 % ID/g
- Tissue (% ID/g): Muscle (1 h post-injection): 0.94 ± 0.20 % ID/g
- Tissue (% ID/g): Pancreas (1 h post-injection): 1.61 ± 0.24 % ID/g
- Tissue (% ID/g): Salivary (1 h post-injection): 5.88 ± 0.82 % ID/g
- Tissue (% ID/g): Seminal (1 h post-injection): 1.22 ± 0.85 % ID/g
- Tissue (% ID/g): Spleen (1 h post-injection): 8.80 ± 2.53 % ID/g
- Tissue (% ID/g): Stomach (1 h post-injection): 0.47 ± 0.18 % ID/g
- Tissue (% ID/g): Tail (1 h post-injection): 3.41 ± 3.03 % ID/g
- Tissue (% ID/g): Testes (1 h post-injection): 1.01 ± 0.17 % ID/g
- Tissue (% ID/g): Thyroid (1 h post-injection): 3.38 ± 0.44 % ID/g
- Tissue (% ID/g): Tumor (1 h post-injection): 10.8 ± 1.57 % ID/g
- Tissue (% ID/g): Urine (1 h post-injection): 160 ± 49.6 % ID/g
- tumor-to-background contrast ratio Tumor: Blood (1 h post-injection): 13.4 ± 4.08
- tumor-to-background contrast ratio Tumor: Muscle (1 h post-injection): 12.1 ± 4.21
- tumor-to-background contrast ratio Tumor: kidney (1 h post-injection): 0.11 ± 0.02
- Tissue (% ID/g): Adrenal glands (4 h post-injection): 3.41 ± 0.54 % ID/g
- Tissue (% ID/g): Blood (4 h post-injection): 0.31 ± 0.04 % ID/g
- Tissue (% ID/g): Bone (4 h post-injection): 0.45 ± 0.53 % ID/g
- Tissue (% ID/g): Brain (4 h post-injection): 0.05 ± 0.05 % ID/g
- Tissue (% ID/g): Fat (4 h post-injection): 0.56 ± 0.16 % ID/g
- Tissue (% ID/g): Heart (4 h post-injection): 1.69 ± 0.13 % ID/g
- Tissue (% ID/g): Intestine (4 h post-injection): 0.95 ± 0.08 % ID/g
- Tissue (% ID/g): Kidneys (4 h post-injection): 101 ± 13.3 % ID/g
- Tissue (% ID/g): Lacrimal (4 h post-injection): 0.02 ± 0.01 % ID/g
- Tissue (% ID/g): Liver (4 h post-injection): 1.46 ± 0.17 % ID/g
- Tissue (% ID/g): Lungs (4 h post-injection): 3.20 ± 0.41 % ID/g
- Tissue (% ID/g): Muscle (4 h post-injection): 0.56 ± 0.15 % ID/g
- Tissue (% ID/g): Pancreas (4 h post-injection): 1.15 ± 0.13 % ID/g
- Tissue (% ID/g): Salivary (4 h post-injection): 2.18 ± 0.56 % ID/g
- Tissue (% ID/g): Seminal (4 h post-injection): 0.57 ± 0.12 % ID/g
- Tissue (% ID/g): Spleen (4 h post-injection): 3.22 ± 1.01 % ID/g
- Tissue (% ID/g): Stomach (4 h post-injection): 0.37 ± 0.06 % ID/g
- Tissue (% ID/g): Tail (4 h post-injection): 1.06 ± 0.60 % ID/g
- Tissue (% ID/g): Testes (4 h post-injection): 0.92 ± 0.10 % ID/g
- Tissue (% ID/g): Thyroid (4 h post-injection): 2.10 ± 0.19 % ID/g
- Tissue (% ID/g): Tumor (4 h post-injection): 18.7±2.96 % ID/g
- Tissue (% ID/g): Urine (4 h post-injection): 84.6 ± 39.3 % ID/g
- tumor-to-background contrast ratio Tumor: Blood (4 h post-injection): 60.3 ± 4.81
- tumor-to-background contrast ratio Tumor: Muscle (4 h post-injection): 34.4 ± 8.39
- tumor-to-background contrast ratio Tumor: kidney (4 h post-injection): 0.19 ± 0.02
- Tissue (% ID/g): Adrenal glands (24 h post-injection): 0.76 ± 0.10 % ID/g
- Tissue (% ID/g): Blood (24 h post-injection): 0.07 ± 0.00 % ID/g
- Tissue (% ID/g): Bone (24 h post-injection): 0.07 ± 0.02 % ID/g
- Tissue (% ID/g): Brain (24 h post-injection): 0.01 ± 0.00 % ID/g
- Tissue (% ID/g): Fat (24 h post-injection): 0.16 ± 0.02 % ID/g
- Tissue (% ID/g): Heart (24 h post-injection): 0.41 ± 0.07 % ID/g
- Tissue (% ID/g): Intestine (24 h post-injection): 0.30 ± 0.06 % ID/g
- Tissue (% ID/g): Kidneys (24 h post-injection): 20.3 ± 6.51 % ID/g
- Tissue (% ID/g): Lacrimal (24 h post-injection): 0.00 ± 0.00 % ID/g
- Tissue (% ID/g): Liver (24 h post-injection): 0.42 ± 0.08 % ID/g
- Tissue (% ID/g): Lungs (24 h post-injection): 0.83 ± 0.12 % ID/g
- Tissue (% ID/g): Muscle (24 h post-injection): 0.15 ± 0.03 % ID/g
- Tissue (% ID/g): Pancreas (24 h post-injection): 0.26 ± 0.04 % ID/g
